According to patent US9481669B2, “Pladienolide pyridine compounds and methods of use” (Eisai R&D Management Co., Ltd., priority 2014, dated 2016):

What was measured:
[1] = test system: Nalm-6 SF3B1^K700E isogenic cells (human pre B-cell line) xenograft; test: Nalm-6 SF3B1^K700E mouse xenograft efficacy model; format: in vivo, CB17-SCID mice; settings: orally dosed daily for 14 days (QD×14 PO)
Experimental: The efficacy of Compound 2 was tested in a mouse xenograft model. Nalm-6 SF3B1^K700E isogenic cells (human pre B-cell line, 10×10^6 cells) were subcutaneously implanted into the flank of female CB17-SCID mice. Mice were treated with Compound 2 (10% ethanol, 5% TWEEN-80, 85% saline) or vehicle control. The animals were orally dosed daily for 14 days (QD×14 PO) at the amounts indicated in FIG. 2 and were monitored until they reached either of the following endpoints: 1) excessive tumor volume measured three times a week (tumor volume calculated by using the ellipsoid formula: (length×width^2)/2); or 2) development of any health problems such as paralysis or excessive body weight loss. All animal studies were carried out according to the H3 Biomedicine Guide for the Care and Use of Laboratory Animals.
The efficacy of Compound 1 was tested in a mouse xenograft model. […] The animals were orally dosed daily for 14 days (QD×14 PO) with 7.5 mg/kg or 10 mg/kg Compound 1 or vehicle and were monitored until they reached either of the following endpoints: 1) excessive tumor volume measured three times a week (tumor volume calculated by using the ellipsoid formula: (length×width^2)/2); or 2) development of any health problems such as paralysis or excessive body weight loss. […]

[2] = test system: Panc 05.04 cancer cells (SF3B1^MUT) vs BXPC3, HPAFII, PANC0403, PANC1005, CFPAC1 and MIAPACA2; test: Cellular viability assay, mutant vs wild-type SF3B1 pancreatic cancer cell lines; format: cell-based; settings: 72 hours at 37° C., 384-well plate
Experimental: To assess the viability of Panc 05.04 cancer cells (SF3B1^MUT) (Q699H and K700E mutations in SF3B1) in the presence of Compound 2, cells were seeded at 750 cells per well in a 384-well plate and treated with Compound 2 at the concentrations indicated in FIG. 4 for 72 hours at 37° C. The relative number of viable or apoptotic cells were measured by luminescence using CELLTITER-GLO® luminescent Cell Viability Assay (Promega).

[3] = test system: alternative splicing in Nalm-6 isogenic cells; test: Alternative splicing modulation (nCounter Nanostring analysis); format: cell-based, human; settings: 10×GI50 for 6 hours
Experimental: The “+” and “−” indicate positive or negative values, respectively, in the shade key, which indicates the varying levels of expression of the different splice junctions.
The modulation of alternative splicing for E7107 and Compound 2 was determined using the nCounter® analysis system (NanoString Techologies, Inc., Seattle, Wash.). Nalm-6 isogenic cells were treated with Compound 2 or E7107 (obtained from Eisai, Inc.) at 10×GI50 for 6 hours. RNA was isolated using RiboPure™ RNA purification kit (Ambion®) and used for analysis. The RNA was retrotranscribed according to the instructions of the SuperScript® VILO™ cDNA synthesis kit (Invitrogen™) and 0.04 μl of cDNA was used for qPCR.

Row | Compound | efficacy / tumor growth in xenograft mouse model [1] | differential cellular lethality, mutant vs wild-type SF3B1 pancreatic cancer cell lines [2] | splicing modulation profile [3]
1 | C/C(=C\C=C\[C@@H](C)c1ccccn1)[C@H]1OC(=O)C[C@H](O)CC[C@@](C)(O)[C@@H](OC(=O)N2CCN(C3CCCCCC3)CC2)/C=C/[C@@H]1C [Compound 1, (2S,3S,6S,7R,10R,E)-7,10-dihydroxy-3,7-dimethyl-12-oxo-2-((R,2E,4E)-6-(pyridin-2-yl)hepta-2,4-dien-2-yl)oxacyclododec-4-en-6-yl 4-cycloheptylpiperazine-1-carboxylate] | efficacious when administered via the oral route and reduced tumor growth | – | –
2 | C/C(=C\C=C\[C@@H](C)c1ccccn1)[C@H]1OC(=O)C[C@H](O)CC[C@@](C)(O)[C@@H](OC(=O)N2CCN(C)CC2)/C=C/[C@@H]1C [Compound 2, (2S,3 S,6S,7R,10R,E)-7,10-dihydroxy-3,7-dimethyl-12-oxo-2-((R,2E,4E)-6-(pyridin-2-yl)hepta-2,4-dien-2-yl)oxacyclododec-4-en-6-yl 4-methylpiperazine-1-carboxylate] | efficacious when administered via the oral route and reduced tumor growth | differential cellular lethality in the mutant SF3B1 pancreatic cancer cell line over wild-type SF3B1 pancreatic cancer cell lines | distinct from the profile of E7107
